# In US7767665B2, “1,3-benzothiazinone derivatives and use thereof” (Takeda Pharmaceutical Company Limited, priority 2001, dated 2010):
row,SMILES,melting point
1,"O=C(c1ccc2c(=O)nc(-c3ccccn3)sc2c1)N1CCOCC1 [Example 240, 7-(4-Morpholinocarbonyl)-2-(2-pyridyl)-4H-1,3-benzothiazine-4-one]",217.6 to 218.8 °C
2,"O=c1nc(-c2ccccn2)sc2cc(Br)ccc12 [Example 241, 7-Bromo-2-(2-pyridyl)-4H-1,3-benzothiazine-4-one]",230.7 to 232.2 °C
3,"N#Cc1cccc(-c2nc(=O)c3ccccc3s2)n1 [Example 242, 6-(4-Oxo-4H-1,3-benzothiazin-2-yl)-s-pyridinecarbonitrile]",263.7 to 264.2 °C
4,O=c1nc(-c2cccc(CP(=O)(O)O)n2)sc2ccccc12 [Example 244],254 °C (dec.)
5,O=c1nc(-c2cccc(CCP(=O)(O)O)n2)sc2ccccc12 [Example 246],235.3 to 237.2 °C
6,"CCSCc1cccc(-c2nc(=O)c3ccccc3s2)n1 [Example 249, 2-[6-[(Ethylthio)methyl]-2-pyridyl]-4H-1,3-benzothiazine-4-one]",142 to 143.5 °C
7,"CC[S+]([O-])Cc1cccc(-c2nc(=O)c3ccccc3s2)n1 (centres unmarked) [Example 250, 2-[6-[(Ethylsulfinyl)methyl]-2-pyridyl]-4H-1,3-benzothiazine-4-one]",188.5 to 190 °C
8,"CCS(=O)(=O)Cc1cccc(-c2nc(=O)c3ccccc3s2)n1 [Example 251, 2-[6-[(Ethylsulfonyl)methyl]-2-pyridyl]-4H-1,3-benzothiazine-4-one]",188.5 to 190 °C
9,CCC[S+]([O-])Cc1cccc(-c2nc(=O)c3ccccc3s2)n1 (centres unmarked) [Example 253],171 to 173 °C
10,"CCCS(=O)(=O)Cc1cccc(-c2nc(=O)c3ccccc3s2)n1 [Example 254, 2-[6-[(n-Propylsulfonyl)methyl]-2-pyridyl]-4H-1,3-benzothiazine-4-one]",177 to 179 °C
11,"O=c1nc(-c2cccc(CSCc3ccccc3)n2)sc2ccccc12 [Example 255, 2-[6-[(Benzylthio)methyl]-2-pyridyl]-4H-1,3-benzothiazine-4-one]",126 to 128 °C
12,"O=c1nc(-c2cccc(C[S+]([O-])Cc3ccccc3)n2)sc2ccccc12 (centres unmarked) [Example 256, 2-[6-[(Benzylsulfinyl)methyl]-2-pyridyl]-4H-1,3-benzothiazine-4-one]",187 to 189 °C
13,"O=c1nc(-c2cccc(CS(=O)(=O)Cc3ccccc3)n2)sc2ccccc12 [Example 257, 2-[6-[(Benzylsulfonyl)methyl]-2-pyridyl]-4H-1,3-benzothiazine-4-one]",246 to 248 °C
14,"COC(=O)CSCc1cccc(-c2nc(=O)c3ccccc3s2)n1 [Example 258, Methyl ({[6-(4-oxo-4H-1,3-benzothiazin-2-yl)-2-pyridyl]methyl}thio)acetate]",108 to 110 °C
15,"COC(=O)C[S+]([O-])Cc1cccc(-c2nc(=O)c3ccccc3s2)n1 (centres unmarked) [Example 259, Methyl ({[6-(4-oxo-4H-1,3-benzothiazin-2-yl)-2-pyridyl]methyl}sulfinyl)acetate]",149.5 to 151 °C
16,"COC(=O)CS(=O)(=O)Cc1cccc(-c2nc(=O)c3ccccc3s2)n1 [Example 260, Methyl ({[6-(4-oxo-4H-1,3-benzothiazin-2-yl)-2-pyridyl]methyl}sulfonyl)acetate]",205 to 207 °C
17,"C[S+]([O-])c1ccc(-c2nc(=O)c3ccccc3s2)cn1 (centres unmarked) [Example 261, 2-[6-(Methylsulfinyl)-3-pyridyl]-4H-1,3-benzothiazine-4-one]",195 to 196.5 °C
18,"CS(=O)(=O)c1ccc(-c2nc(=O)c3ccccc3s2)cn1 [Example 262, 2-[6-(Methylsulfonyl)-3-pyridyl]-4H-1,3-benzothiazine-4-one]",205 to 207 °C
19,"C[S+]([O-])c1cc(-c2nc(=O)c3ccccc3s2)ccn1 (centres unmarked) [Example 263, 2-[2-(Methylsulfinyl)-4-pyridyl]-4H-1,3-benzothiazine-4-one]",172.5 to 174 °C
20,"CS(=O)(=O)c1cc(-c2nc(=O)c3ccccc3s2)ccn1 [Example 264, 2-[2-(Methylsulfonyl)-4-pyridyl]-4H-1,3-benzothiazine-4-one]",189.5 to 191.5 °C
21,"O=c1nc(-c2cccc(CN3CCN(c4ccc(F)cc4)CC3)n2)sc2ccccc12 [Example 265, 2-(6-{[4-(4-Fluorophenyl)-1-piperazinyl]methyl}-2-pyridyl)-4H-1,3-benzothiazine-4-one]",156 to 157 °C
22,"O=c1nc(-c2cccc(CN3CCCCC3)n2)sc2ccccc12 [Example 266, 2-[6-(1-Piperidinomethyl)-2-pyridyl]-4H-1,3-benzothiazine-4-one]",162 to 163 °C
23,"O=c1nc(-c2cccc(CN3CCC(c4ccccc4)CC3)n2)sc2ccccc12 [Example 267, 2-{6-[(4-Phenyl-1-piperidyl)methyl]-2-pyridyl}-4H-1,3-benzo thiazine-4-one]",207 to 208 °C
24,"O=c1nc(-c2cccc(CN3CCC(Cc4ccccc4)CC3)n2)sc2ccccc12 [Example 268, 2-{6-[(4-Benzyl-1-piperidyl)methyl]-2-pyridyl}-4H-1,3-benzo thiazine-4-one]",151 to 153 °C
25,"O=c1nc(-c2cccc(Sc3ncccn3)n2)sc2ccccc12 [Example 270, 2-[6-(2-Pyrimidinylthio)-2-pyridyl]-4H-1,3-benzothiazine-4-one]",245.2 to 245.8 °C
26,"Cn1ccnc1Sc1cccc(-c2nc(=O)c3ccccc3s2)n1 [Example 271, 2-{6-[(1-Methyl-1H-imidazol-2-yl)thio]-2-pyridyl}-4H-1,3-benzothiazine-4-one]",171.9 to 172.3 °C

# Other lines, results leading:
row,melting point,SMILES
1,151.3 to 151.9 °C,"O=c1nc(-c2cccc(CSc3ccccn3)n2)sc2ccccc12 [Example 272, 2-{6-[(2-Pyridylthio)methyl]-2-pyridyl}-4H-1,3-benzothiazine-4-one]"
2,181.9 to 182.5 °C,"O=c1nc(-c2cccc(CSc3ccncc3)n2)sc2ccccc12 [Example 273, 2-{6-[(4-pyridylthio)methyl]-2-pyridyl}-4H-1,3-benzothiazine-4-one]"
3,245.2 to 245.8 °C,"O=c1nc(-c2cccc(Sc3ccncc3)n2)sc2ccccc12 [Example 274, 2-[6-(4-Pyridylthio)-2-pyridyl]-4H-1,3-benzothiazine-4-one]"
4,169.5 to 170 °C,"CC(C)(C)OC(=O)CSc1cccc(-c2nc(=O)c3ccccc3s2)n1 [Example 275, tert-Butyl {[6-(4-oxo-4H-1,3-benzothiazin-2-yl)-2-pyridyl]thio}acetate]"
5,258 to 260 °C,"O=C(O)CSc1cccc(-c2nc(=O)c3ccccc3s2)n1 [Example 276, [6-(4-Oxo-4H-1,3-benzothiazin-2-yl)-2-pyridyl]thioacetic acid]"
6,124.5 to 125 °C,"CCOC(=O)CSc1cccc(-c2nc(=O)c3ccccc3s2)n1 [Example 277, Ethyl {[6-(4-oxo-4H-1,3-benzothiazin-2-yl)-2-pyridyl]thio}acetate]"
7,158.8 to 159.1 °C,"CC(C)(C)OC(=O)C[S+]([O-])c1cccc(-c2nc(=O)c3ccccc3s2)n1 (centres unmarked) [Example 278, tert-Butyl {[6-(4-oxo-4H-1,3-benzothiazin-2-yl)-2-pyridyl]sulfinyl}acetate]"
8,186.5 to 188 °C,"O=C(O)C[S+]([O-])c1cccc(-c2nc(=O)c3ccccc3s2)n1 (centres unmarked) [Example 279, [6-(4-Oxo-4H-1,3-benzothiazin-2-yl)-2-pyridyl]sulfinylacetic acid]"
9,159 to 160 °C,"CC(C)(C)OC(=O)CS(=O)(=O)c1cccc(-c2nc(=O)c3ccccc3s2)n1 [Example 280, tert-Butyl {[6-(4-oxo-4H-1,3-benzothiazin-2-yl)-2-pyridyl]sulfonyl}acetate]"
10,192 to 193.5 °C,"O=C(O)CS(=O)(=O)c1cccc(-c2nc(=O)c3ccccc3s2)n1 [Example 281, [6-(4-Oxo-4H-1,3-benzothiazin-2-yl)-2-pyridyl]sulfonylacetic acid]"
11,256.7 to 257 °C,NC(=O)CSc1cccc(-c2nc(=O)c3ccccc3s2)n1 [Example 282]
12,223.5 to 224 °C,"CSc1nccc(-c2nc(=O)c3ccccc3s2)n1 [Example 284, 2-[2-(Methylthio)-6-pyrimidinyl]-4H-1,3-benzothiazine-4-one]"
13,250.5 to 252 °C,"C[S+]([O-])c1nccc(-c2nc(=O)c3ccccc3s2)n1 (centres unmarked) [Example 285, 2-[2-(Methylsulfinyl)-6-pyrimidinyl]-4H-1,3-benzothiazine-4-one]"
14,269.5 to 270 °C,"CS(=O)(=O)c1nccc(-c2nc(=O)c3ccccc3s2)n1 [Example 286, 2-[2-(Methylsulfonyl)-6-pyrimidinyl]-4H-1,3-benzothiazine-4-one]"
15,202.4 to 202.9 °C,"CSc1cncc(-c2nc(=O)c3ccccc3s2)n1 [Example 287, 2-[6-(Methylthio)-2-pyrazinyl]-4H-1,3-benzothiazine-4-one]"
16,228.5 to 230.5 °C,"C[S+]([O-])c1cncc(-c2nc(=O)c3ccccc3s2)n1 (centres unmarked) [Example 288, 2-[6-(Methylsulfinyl)-2-pyrazinyl]-4H-1,3-benzothiazine-4-one]"
17,232 to 233 °C,"CS(=O)(=O)c1cncc(-c2nc(=O)c3ccccc3s2)n1 [Example 289, 2-[6-(Methylsulfonyl)-2-pyrazinyl]-4H-1,3-benzothiazine-4-one]"
18,248 to 249 °C,"CN(C)c1cncc(-c2nc(=O)c3ccccc3s2)n1 [Example 290, 2-[6-(Dimethylamino)-2-pyrazinyl]-4H-1-benzothiazine-4-one]"
19,189 to 190.5 °C,"CN(CC(=O)OC(C)(C)C)c1cncc(-c2nc(=O)c3ccccc3s2)n1 [Example 291, tert-Butyl {methyl[6-(4-oxo-4H-1,3-benzothiazin-2-yl)-2-pyrazinyl]amino}acetate]"
20,283 °C (dec.),"CN(CC(=O)O)c1cncc(-c2nc(=O)c3ccccc3s2)n1 [Example 292, {Methyl[6-(4-oxo-1,3-benzothiazin-2-yl)-2-pyrazinyl]amino}acetic acid]"
21,186.5 to 188 °C,"CN(CC(=O)OC(C)(C)C)c1nccc(-c2nc(=O)c3ccccc3s2)n1 [Example 293, tert-Butyl {methyl [6-(4-oxo-4H-1,3-benzothiazin-2-yl)-2-pyrimidinyl]amino}acetate]"
